This note sets out measurements from patent US8188078B2 (Sanofi-Aventis, priority 2007, dated 2012).

The target of one test is RON (Homo sapiens, UniProt Q04912). Nature of the test: Test B: HTRF RON test in 96-well format. Type of test: biochemical. Put shortly: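 RON 5 nM pre-incubated 30 min at RT with compound (0.17 nM–10 μM final, 3% DMSO) in MOPS 10 mM pH 7, DTT, Tween 20. Reaction with biotinylated poly-(GAT) 1 μg/ml, ATP 10 μM, MgCl2 5 mM, 30 min RT. Eu-anti-pTyr/streptavidin-XL665 HTRF, 665/620 ratio gives % inhibition, IC50.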
(In general: TR-FRET usually uses a lanthanide donor and a delayed reading to cut background.)

For the next test, the target named is T1, MET (Homo sapiens, UniProt P08581).
T1 construct: endogenous in cells; host or cells: MKN45 cells
In words: Test C: inhibition of the autophosphorylation of MET, ELISA technique (pppY1230, 1234, 1235), MKN45 cells. Type of test: cell-based. Put shortly:
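MKN45 cells adhered 24 h, then treated 1 h with compound at 6 concentrations in duplicate, final range 10000 to 30 nM. Lysates assayed by phospho-MET (pY1230/1234/1235) sandwich ELISA with HRP chromogen read at 450 nm.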
(ELISA stands for enzyme-linked immunosorbent assay.)

In another test the test system is MKN45 cells. Nature of the test: Test D: cellular proliferation by 14C-thymidine pulse, MKN45 cells. Format: cell-based. The conditions noted are these: Homo sapiens, MKN-45, cellular proliferation by 14C-thymidine pulse; cell line not stated (HCT116 or MKN45). In short, it runs like this: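 MKN45 cells (7500/well, RPMI + 10% foetal calf serum) treated with 10 concentrations, 10000 to 0.3 nM in 3-fold steps, duplicate. 14C-thymidine (0.1 μCi/well) added at 72 h; incorporation counted after 24 h pulse, 96 h total treatment.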

Some results are limits rather than exact numbers.

T1 sequence (P08581 25-1390): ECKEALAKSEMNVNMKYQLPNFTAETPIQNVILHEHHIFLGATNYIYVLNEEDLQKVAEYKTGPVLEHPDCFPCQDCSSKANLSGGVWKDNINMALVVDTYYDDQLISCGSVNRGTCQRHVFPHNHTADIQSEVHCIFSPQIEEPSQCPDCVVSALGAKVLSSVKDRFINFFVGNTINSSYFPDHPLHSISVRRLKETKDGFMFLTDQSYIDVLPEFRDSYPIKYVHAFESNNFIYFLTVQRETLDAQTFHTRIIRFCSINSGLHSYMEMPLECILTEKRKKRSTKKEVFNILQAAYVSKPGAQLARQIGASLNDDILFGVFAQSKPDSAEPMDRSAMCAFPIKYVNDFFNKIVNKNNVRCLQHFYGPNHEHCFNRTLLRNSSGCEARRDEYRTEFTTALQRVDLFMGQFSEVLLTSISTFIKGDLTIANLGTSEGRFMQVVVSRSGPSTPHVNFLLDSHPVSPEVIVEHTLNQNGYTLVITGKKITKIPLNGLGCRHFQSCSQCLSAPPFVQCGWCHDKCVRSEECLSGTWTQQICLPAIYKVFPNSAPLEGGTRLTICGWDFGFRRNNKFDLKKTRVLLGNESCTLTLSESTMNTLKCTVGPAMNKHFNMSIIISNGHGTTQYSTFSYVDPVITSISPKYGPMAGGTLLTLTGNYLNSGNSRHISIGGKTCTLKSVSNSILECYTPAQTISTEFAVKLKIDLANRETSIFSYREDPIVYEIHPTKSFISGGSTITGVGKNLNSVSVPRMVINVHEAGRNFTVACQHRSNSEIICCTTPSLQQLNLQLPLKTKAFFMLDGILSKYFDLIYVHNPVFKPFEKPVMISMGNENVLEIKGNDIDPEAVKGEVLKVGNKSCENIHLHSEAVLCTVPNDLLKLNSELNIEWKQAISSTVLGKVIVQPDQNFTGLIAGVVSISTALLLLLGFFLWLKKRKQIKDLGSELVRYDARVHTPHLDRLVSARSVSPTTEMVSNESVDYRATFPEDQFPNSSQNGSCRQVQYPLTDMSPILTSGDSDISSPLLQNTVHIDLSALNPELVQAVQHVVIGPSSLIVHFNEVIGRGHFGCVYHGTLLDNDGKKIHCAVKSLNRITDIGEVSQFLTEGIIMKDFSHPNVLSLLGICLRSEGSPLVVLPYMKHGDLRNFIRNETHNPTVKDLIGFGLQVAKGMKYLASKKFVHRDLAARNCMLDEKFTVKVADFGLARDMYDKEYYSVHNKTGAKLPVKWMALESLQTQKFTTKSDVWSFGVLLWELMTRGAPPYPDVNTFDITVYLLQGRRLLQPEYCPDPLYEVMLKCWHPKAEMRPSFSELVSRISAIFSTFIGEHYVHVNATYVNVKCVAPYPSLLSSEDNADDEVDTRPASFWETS
Sequence of RON (Q04912 25-1400): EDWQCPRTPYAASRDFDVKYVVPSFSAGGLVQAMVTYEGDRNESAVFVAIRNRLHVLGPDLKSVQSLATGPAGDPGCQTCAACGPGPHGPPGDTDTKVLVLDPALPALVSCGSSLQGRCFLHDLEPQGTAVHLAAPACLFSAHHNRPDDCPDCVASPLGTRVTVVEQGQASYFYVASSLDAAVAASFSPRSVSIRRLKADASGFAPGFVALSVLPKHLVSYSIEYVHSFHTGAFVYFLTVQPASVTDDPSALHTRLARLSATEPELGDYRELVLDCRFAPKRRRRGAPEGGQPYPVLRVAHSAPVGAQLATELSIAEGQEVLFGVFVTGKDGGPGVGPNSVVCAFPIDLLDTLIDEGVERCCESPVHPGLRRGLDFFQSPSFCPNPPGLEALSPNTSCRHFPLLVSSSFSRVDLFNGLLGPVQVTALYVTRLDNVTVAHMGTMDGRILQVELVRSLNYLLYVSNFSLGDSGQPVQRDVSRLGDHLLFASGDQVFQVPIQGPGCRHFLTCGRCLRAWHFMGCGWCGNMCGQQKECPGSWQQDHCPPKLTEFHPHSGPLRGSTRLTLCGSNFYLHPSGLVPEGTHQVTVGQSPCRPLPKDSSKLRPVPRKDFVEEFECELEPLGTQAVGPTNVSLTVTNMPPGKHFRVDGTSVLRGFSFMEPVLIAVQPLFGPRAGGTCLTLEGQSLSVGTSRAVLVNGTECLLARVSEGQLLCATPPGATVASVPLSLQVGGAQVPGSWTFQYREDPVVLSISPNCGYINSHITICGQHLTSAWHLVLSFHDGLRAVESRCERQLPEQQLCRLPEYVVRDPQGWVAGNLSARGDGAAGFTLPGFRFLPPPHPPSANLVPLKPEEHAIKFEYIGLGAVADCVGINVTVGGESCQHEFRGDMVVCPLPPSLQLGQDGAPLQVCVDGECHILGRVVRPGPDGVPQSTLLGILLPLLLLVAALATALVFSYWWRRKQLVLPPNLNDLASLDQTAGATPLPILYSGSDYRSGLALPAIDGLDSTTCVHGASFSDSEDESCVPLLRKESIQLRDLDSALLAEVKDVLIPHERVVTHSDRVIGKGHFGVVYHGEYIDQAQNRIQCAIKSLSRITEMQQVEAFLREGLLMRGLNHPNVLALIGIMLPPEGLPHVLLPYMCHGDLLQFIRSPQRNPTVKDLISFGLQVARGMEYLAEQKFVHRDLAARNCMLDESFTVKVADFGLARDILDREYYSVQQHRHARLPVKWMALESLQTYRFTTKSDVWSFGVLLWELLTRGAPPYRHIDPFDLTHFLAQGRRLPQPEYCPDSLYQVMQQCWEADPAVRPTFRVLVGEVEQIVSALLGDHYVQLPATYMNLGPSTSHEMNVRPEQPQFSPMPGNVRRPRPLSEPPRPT

Broadly, the IC50 is the concentration needed to halve the response being measured. Low readings indicate inhibition by little substance, high ones a need for much substance. On to `CC(Oc1ccc2nc(NC(=O)NCCCN3C(C)CCCC3C)sc2c1)c1c(Cl)ccc(F)c1Cl` (stereo not drawn) [Example 47, 1-{6-[1-(2,6-dichloro-3-fluorophenyl)ethoxy]-1,3-benzothiazol-2-yl}-3-[3-(2,6-dimethylpiperidin-1-yl)propyl]urea], for which the half-inhibitory concentration (IC50) against RON, against MET and in the test on MKN45 cells was 500 to 10000 nM each time.
Turning to `CC(Oc1ccc2nc(NC(=O)NCCCN3CCCCCC3)sc2c1)c1c(Cl)ccc(F)c1Cl` (stereo not drawn) [Example 48, 1-(3-azepan-1-ylpropyl)-3-{6-[1-(2,6-dichloro-3-fluorophenyl)ethoxy]-1,3-benzothiazol-2-yl}urea], the IC50 on RON was less than 500 nM; on MET, less than 500 nM; with MKN45 cells, greater than 10000 nM.
Take `CC(Oc1ccc2nc(NC(=O)NCCCN3CCN(Cc4ccccc4)CC3)sc2c1)c1c(Cl)ccc(F)c1Cl` (stereo not drawn) [Example 49, 1-[3-(4-benzylpiperazin-1-yl)propyl]-3-{6-[1-(2,6-dichloro-3-fluorophenyl)ethoxy]-1,3-benzothiazol-2-yl}urea]: the concentration for half-maximal inhibition (IC50) against RON was 500 to 10000 nM; on MET it was less than 500 nM; with MKN45 cells, 500 to 10000 nM.
`CC(Oc1ccc2nc(NC(=O)NCCN3CCCCC3)sc2c1)c1c(Cl)ccc(F)c1Cl` (stereo not drawn) [Example 50, 1-{6-[1-(2,6-dichloro-3-fluorophenyl)ethoxy]-1,3-benzothiazol-2-yl}-3-(2-piperidin-1-ylethyl)urea]: the IC50 is 500 to 10000 nM on RON, less than 500 nM on MET and 500 to 10000 nM in the test on MKN45 cells.
Consider `CC(Oc1ccc2nc(NC(=O)NCCN3CCCC3)sc2c1)c1c(Cl)ccc(F)c1Cl` (stereo not drawn) [Example 51, 1-{6-[1-(2,6-dichloro-3-fluorophenyl)ethoxy]-1,3-benzothiazol-2-yl}-3-(2-pyrrolidin-1-ylethyl)urea], for which the IC50 at RON is 500 to 10000 nM; against MET it was less than 500 nM; in the test on MKN45 cells, 500 to 10000 nM.
For `CC(Oc1ccc2nc(NC(=O)NCCC3CCCN3C)sc2c1)c1c(Cl)ccc(F)c1Cl` (stereo not drawn) [Example 53, 1-{6-[1-(2,6-dichloro-3-fluorophenyl)ethoxy]-1,3-benzothiazol-2-yl}-3-[2-(1-methylpyrrolidin-2-yl)ethyl]urea], the IC50 at RON, on MET and in the test with MKN45 cells was less than 500 nM each time.
Consider `CC(Oc1ccc2nc(NC(=O)NCCN3CCCCCC3)sc2c1)c1c(Cl)ccc(F)c1Cl` (stereo not drawn) [Example 54, 1-(2-azepan-1-ylethyl)-3-{6-[1-(2,6-dichloro-3-fluorophenyl)ethoxy]-1,3-benzothiazol-2-yl}urea], for which the IC50 is 500 to 10000 nM against RON, less than 500 nM against MET and 500 to 10000 nM with MKN45 cells.
In the case of `CC(Oc1ccc2nc(NC(=O)NCCN3CCN(C)CC3)sc2c1)c1c(Cl)ccc(F)c1Cl` (stereo not drawn) [Example 55, 1-{6-[1-(2,6-dichloro-3-fluorophenyl)ethoxy]-1,3-benzothiazol-2-yl}-3-[2-(4-methylpiperazin-1-yl)ethyl]urea], the IC50 against RON, against MET and in the test with MKN45 cells was less than 500 nM throughout.
In the case of `CC(Oc1ccc2nc(NC(=O)NCCN3C(C)CCCC3C)sc2c1)c1c(Cl)ccc(F)c1Cl` (stereo not drawn) [Example 56, 1-{6-[1-(2,6-dichloro-3-fluorophenyl)ethoxy]-1,3-benzothiazol-2-yl}-3-[2-(2,6-dimethylpiperidin-1-yl)ethyl]urea], the half-inhibitory concentration (IC50) at RON was 500 to 10000 nM; against MET, less than 500 nM; in the test with MKN45 cells, less than 500 nM.
On to `CC(Oc1ccc2nc(NC(=O)NCc3ccncc3)sc2c1)c1c(Cl)ccc(F)c1Cl` (stereo not drawn) [Example 57, 1-{6-[1-(2,6-dichloro-3-fluorophenyl)ethoxy]-1,3-benzothiazol-2-yl}-3-(pyridin-4-ylmethyl)urea], for which the figures for the half-inhibitory concentration (IC50) against RON, on MET and with MKN45 cells were 500 to 10000 nM, 500 to 10000 nM and greater than 10000 nM, respectively.
In the case of `CC(Oc1ccc2nc(NC(=O)NCc3ccccn3)sc2c1)c1c(Cl)ccc(F)c1Cl` (stereo not drawn) [Example 58, 1-{6-[1-(2,6-dichloro-3-fluorophenyl)ethoxy]-1,3-benzothiazol-2-yl}-3-(pyridin-2-ylmethyl)urea], the IC50 was 500 to 10000 nM on RON, 500 to 10000 nM at MET and greater than 10000 nM with MKN45 cells.
Regarding `CC(Oc1ccc2nc(NC(=O)NCc3cccnc3)sc2c1)c1c(Cl)ccc(F)c1Cl` (stereo not drawn) [Example 59, 1-{6-[1-(2,6-dichloro-3-fluorophenyl)ethoxy]-1,3-benzothiazol-2-yl}-3-(pyridin-3-ylmethyl)urea], the IC50 at RON, against MET and in the test on MKN45 cells was 500 to 10000 nM each time.
`CC(Oc1ccc2nc(NC(=O)NCCN3CCOCC3)sc2c1)c1c(F)ccc(F)c1F` (stereo not drawn) [Example 60, 1-(2-morpholin-4-ylethyl)-3-{6-[1-(2,3,6-trifluorophenyl)ethoxy]-1,3-benzothiazol-2-yl}urea]: the IC50 at RON was 500 to 10000 nM; at MET, 500 to 10000 nM; in the test with MKN45 cells it was greater than 10000 nM.
As for `CC(Oc1ccc2nc(NC(=O)NCCN3CCOCC3)sc2c1)c1c(F)ccc(Cl)c1Cl` (stereo not drawn) [Example 61, 1-{6-[1-(2,3-dichloro-6-fluorophenyl)ethoxy]-1,3-benzothiazol-2-yl}-3-(2-morpholin-4-ylethyl)urea], the half-maximal inhibitory concentration (IC50) on RON, on MET and with MKN45 cells was less than 500 nM in each case.
For the compound `O=C(NCCN1CCOCC1)Nc1nc2ccc(OC(c3c(Cl)cccc3Cl)C(F)(F)F)cc2s1` (stereo not drawn) [Example 64, 1-{6-[1-(2,6-dichlorophenyl)-2,2,2-trifluoroethoxy]-1,3-benzothiazol-2-yl}-3-(2-morpholin-4-ylethyl)urea], the results for the IC50 against RON, against MET and with MKN45 cells were 500 to 10000 nM, 500 to 10000 nM and greater than 10000 nM, respectively.
Regarding `CC(Oc1ccc2nc(NC(=O)CCCN3CCOCC3)sc2c1)c1c(Cl)ccc(F)c1Cl` (stereo not drawn) [Example 65, N-{6-[1-(2,6-dichloro-3-fluorophenyl)ethoxy]-1,3-benzothiazol-2-yl}-4-(morpholin-4-yl)butanamide], the IC50 against RON, at MET and in the test with MKN45 cells was 500 to 10000 nM each time.
With `CC(Oc1ccc2nc(NC(=O)C3CC3)sc2c1)c1c(Cl)ccc(F)c1Cl` (stereo not drawn) [Example 66, N-{6-[1-(2,6-dichloro-3-fluorophenyl)ethoxy]-1,3-benzothiazol-2-yl}cyclopropanecarboxamide], the IC50 is 500 to 10000 nM against RON, less than 500 nM on MET and 500 to 10000 nM in the test with MKN45 cells.
In the case of `CC(Oc1cc2sc(NC(=O)CCCN3CCCC3)nc2cc1F)c1c(Cl)ccc(F)c1Cl` (stereo not drawn) [Example 68, N-{6-[1-(2,6-dichloro-3-fluorophenyl)ethoxy]-5-fluoro-1,3-benzothiazol-2-yl}-4-(pyrrolidin-1-yl)butanamide], the IC50 is 500 to 10000 nM on RON, less than 500 nM at MET and 500 to 10000 nM in the test on MKN45 cells.
Regarding `CC(Oc1cc2sc(NC(=O)CN3CCNCC3)nc2cc1F)c1c(Cl)ccc(F)c1Cl` (stereo not drawn) [Example 69, N-{6-[1-(2,6-dichloro-3-fluorophenyl)ethoxy]-5-fluoro-1,3-benzothiazol-2-yl}-2-(piperazin-1-yl)acetamide], the IC50 against RON was 500 to 10000 nM; against MET, less than 500 nM; in the test on MKN45 cells it was 500 to 10000 nM.
With `CCN(CC)CCCOC(=O)Nc1nc2cc(F)c(OC(C)c3c(Cl)ccc(F)c3Cl)cc2s1` (stereo not drawn) [Example 70], the IC50 against RON, against MET and in the test on MKN45 cells was 500 to 10000 nM in each case.
